Experiment [1] addresses T1, S1P1 receptor (Homo sapiens, UniProt P21453). Briefly: S1P1 β-arrestin recruitment assay in S1P1 overexpressing cell line (DiscoverX), luminescence. It counts as cell-based.
Experiment [2] addresses T1, S1P1 receptor. Briefly: S1P1 receptor internalization (endosome formation) assay in S1P1 overexpressing cell line (DiscoverX), luminescence. It counts as cell-based.
Where [3] appears, read: S1P1 overexpressing cell line, β-arrestin recruitment, luminescence, read-out: β-arrestin EC50.
Setting [4] is: S1P1 overexpressing cell line, endosome formation by internalization, luminescence, read-out: Internalization EC50.

For 32 compounds, EC50 results are on record in patent EP4567034A1 (Korea Institute of Science and Technology, priority 2022, dated 2024).

T1 sequence (P21453 whole entry): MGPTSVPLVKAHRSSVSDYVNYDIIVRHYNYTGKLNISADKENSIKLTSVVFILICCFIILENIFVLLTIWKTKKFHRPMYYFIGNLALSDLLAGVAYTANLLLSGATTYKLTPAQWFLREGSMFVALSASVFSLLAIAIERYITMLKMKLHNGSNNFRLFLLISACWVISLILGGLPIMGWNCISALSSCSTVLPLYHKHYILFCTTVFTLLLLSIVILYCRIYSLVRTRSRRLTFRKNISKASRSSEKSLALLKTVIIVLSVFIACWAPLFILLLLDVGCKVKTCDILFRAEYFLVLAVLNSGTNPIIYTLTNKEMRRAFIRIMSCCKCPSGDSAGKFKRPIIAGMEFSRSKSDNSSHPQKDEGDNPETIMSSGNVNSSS

Consider `COC(=O)C1CN(Cc2ccc(-c3cnc(-c4ccc(C(C)(C)C)cc4)[se]3)cc2)C1` [Compound 1, Methyl 1-(4-(2-(4-tert-butylphenyl)-1,3-selenazole-5-yl)benzyl)azetidine-3-carboxylate], for which the EC50 on S1P1 receptor [1] turned out to be 11.1 nM; on S1P1 receptor [2], 173 nM.

On to `CCOC(=O)C1CN(Cc2ccc(-c3cnc(-c4ccc(C(C)(C)C)cc4)[se]3)cc2)C1` [Compound 3, Ethyl 1-(4-(2-(4-tert-butylphenyl)-1,3-selenazole-5-yl)benzyl)azetidine-3-carboxylate], for which the results for the half-maximal effective concentration (EC50) at S1P1 receptor [1] and on S1P1 receptor [2] were 23.6 nM and 116 nM, respectively.

For the compound `CC(C)(C)OC(=O)C1CN(Cc2ccc(-c3cnc(-c4ccc(C(C)(C)C)cc4)[se]3)cc2)C1` [Compound 4, Tert-butyl 1-(4-(2-(4-tert-butylphenyl)-1,3-selenazole-5-yl)benzyl)azetidine-3-carboxylate], the EC50 at S1P1 receptor [1] came to 70.1 nM; at S1P1 receptor [2], 141 nM.

For the compound `COC(=O)C1CN(Cc2ccc(-c3cnc(-c4ccc(OC(C)C)c(C#N)c4)[se]3)cc2)C1` [Compound 5], the EC50 worked out at 3.64 nM at S1P1 receptor [1] and 0.87 nM at S1P1 receptor [2].

Turning to `CC(C)Oc1ccc(-c2ncc(-c3ccc(CN4CC(C(=O)O)C4)cc3)[se]2)cc1C#N` [Compound 6], the EC50 is 0.37 nM at S1P1 receptor [1] and 0.065 nM on S1P1 receptor [2].

For the compound `CCOC(=O)C1CN(Cc2ccc(-c3cnc(-c4ccc(OC(C)C)c(C#N)c4)[se]3)cc2)C1` [Compound 7, Ethyl 1-(4-(2-(3-cyano-4-isopropoxyphenyl)-1,3-selenazole-5-yl)benzyl)azetidine-3-carboxylate], the concentration giving a half-maximal response (EC50) is 1.17 nM on S1P1 receptor [1] and 4.33 nM at S1P1 receptor [2].

Consider `CC(C)Oc1ccc(-c2ncc(-c3ccc(CN4CC(C(=O)OC(C)(C)C)C4)cc3)[se]2)cc1C#N` [Compound 8, Tert-butyl 1-(4-(2-(3-cyano-4-isopropoxyphenyl)-1,3-selenazole-5-yl)benzyl)azetidine-3-carboxylate], for which the concentration giving a half-maximal response (EC50) at S1P1 receptor [1] is 29.9 nM; on S1P1 receptor [2] it was 33.1 nM.

On to `COC(=O)C1CN(Cc2ccc(-c3cnc(-c4ccc(OC(C)C)c(C(F)(F)F)c4)[se]3)cc2)C1` [Compound 9, Methyl 1-(4-(2-(4-isopropoxy-3-(trifluoromethyl)phenyl)-1,3-selenazole-5-yl)benzyl)azetidine-3-carboxylate], for which the concentration for a half-maximal effect (EC50) at S1P1 receptor [1] was 1.82 nM; on S1P1 receptor [2], 1.59 nM.

As to `CC(C)Oc1ccc(-c2ncc(-c3ccc(CN4CC(C(=O)O)C4)cc3)[se]2)cc1C(F)(F)F` [Compound 10, 1-(4-(2-(4-isopropoxy-3-(trifluoromethyl)phenyl)-1,3-selenazole-5-yl)benzyl)azetidine-3-carboxylic acid], the figures for the concentration for a half-maximal effect (EC50) at S1P1 receptor [1] and on S1P1 receptor [2] were 0.45 nM and 0.36 nM, respectively.

For the compound `CCOC(=O)C1CN(Cc2ccc(-c3cnc(-c4ccc(OC(C)C)c(C(F)(F)F)c4)[se]3)cc2)C1` [Compound 11, Ethyl 1-(4-(2-(4-isopropoxy-3-(trifluoromethyl)phenyl)-1,3-selenazole-5-yl)benzyl)azetidine-3-carboxylate], the half-maximal effective concentration (EC50) worked out at 1.49 nM on S1P1 receptor [1] and 12.6 nM on S1P1 receptor [2].

Take `COC(=O)C1CN(Cc2ccc(-c3cnc(-c4ccc(OC(C)C)c(Cl)c4)[se]3)cc2)C1` [Compound 12, Methyl 1-(4-(2-(3-chloro-4-isopropoxyphenyl)-1,3-selenazole-5-yl)benzyl)azetidine-3-carboxylate]: the concentration giving a half-maximal response (EC50) at S1P1 receptor [1] turned out to be 1.41 nM; on S1P1 receptor [2] it was 1.48 nM.

For the compound `CCOc1ccc(-c2ncc(-c3ccc(CN4CC(C(=O)OC)C4)cc3)[se]2)cc1Cl` [Compound 14, Methyl 1-(4-(2-(3-chloro-4-ethoxyphenyl)-1,3-selenazole-5-yl)benzyl)azetidine-3-carboxylate], the EC50 was determined as 1.13 nM on S1P1 receptor [1] and 4.91 nM on S1P1 receptor [2].

In the case of `COC(=O)C1CN(Cc2ccc(-c3cnc(-c4ccc(OC)cc4)[se]3)cc2)C1` [Compound 16, Methyl 1-(4-(2-(4-methoxyphenyl)-1,3-selenazole-5-yl)benzyl)azetidine-3-carboxylate], the concentration for a half-maximal effect (EC50) at S1P1 receptor [1] stood at 48.5 nM; on S1P1 receptor [2] it was 139 nM.

In the case of `COc1ccc(-c2ncc(-c3ccc(CN4CC(C(=O)O)C4)cc3)[se]2)cc1` [Compound 17, 1-(4-(2-(4-methoxyphenyl)-1,3-selenazole-5-yl)benzyl)azetidine-3-carboxylic acid], the results for the half-maximal effective concentration (EC50) on S1P1 receptor [1] and on S1P1 receptor [2] were 25.9 nM and 81.3 nM, respectively.

In the case of `COC(=O)C1CN(Cc2ccc(-c3cnc(-c4ccc(OC(C)C)cc4)[se]3)cc2)C1` [Compound 18, Methyl 1-(4-(2-(4-isopropoxyphenyl)-1,3-selenazole-5-yl)benzyl)azetidine-3-carboxylate], the concentration giving a half-maximal response (EC50) at S1P1 receptor [1] was 3.24 nM; on S1P1 receptor [2], 9.26 nM.

In the case of `CC(C)Oc1ccc(-c2ncc(-c3ccc(CN4CC(C(=O)O)C4)cc3)[se]2)cc1` [Compound 19, 1-(4-(2-(4-isopropoxyphenyl)-1,3-selenazole-5-yl)benzyl)azetidine-3-carboxylic acid], the EC50 came out at 1.14 nM on S1P1 receptor [1] and 0.97 nM at S1P1 receptor [2].

Regarding `CCOC(=O)C1CN(Cc2ccc(-c3cnc(-c4ccc(OC(C)C)cc4)[se]3)cc2)C1` [Compound 20, Ethyl 1-(4-(2-(4-isopropoxyphenyl)-1,3-selenazole-5-yl)benzyl)azetidine-3-carboxylate], the concentration giving a half-maximal response (EC50) on S1P1 receptor [1] is 3.05 nM; on S1P1 receptor [2], 119 nM.

Turning to `COC(=O)C1CN(Cc2ccc(-c3cnc(-c4cccc(OC(C)C)c4)[se]3)cc2)C1` [Compound 21, Methyl 1-(4-(2-(3-isopropoxyphenyl)-1,3-selenazole-5-yl)benzyl)azetidine-3-carboxylate], the EC50 on S1P1 receptor [1] (setting [3]) amounted to 503 nM; on S1P1 receptor [2] (setting [4]), 379 nM.

In the case of `CC(C)Oc1cccc(-c2ncc(-c3ccc(CN4CC(C(=O)O)C4)cc3)[se]2)c1` [Compound 22, 1-(4-(2-(3-isopropoxyphenyl)-1,3-selenazole-5-yl)benzyl)azetidine-3-carboxylic acid], the EC50 at S1P1 receptor [1] amounted to 8.59 nM; at S1P1 receptor [2], 97.4 nM.

Turning to `COC(=O)C1CN(Cc2ccc(-c3cnc(-c4ccccc4OC(C)C)[se]3)cc2)C1` [Compound 23, Methyl 1-(4-(2-(2-isopropoxyphenyl)-1,3-selenazole-5-yl)benzyl)azetidine-3-carboxylate], the EC50 on S1P1 receptor [1] (setting [3]) and on S1P1 receptor [2] (setting [4]) was more than 1000 nM in each case.

For the compound `CC(C)Oc1ccccc1-c1ncc(-c2ccc(CN3CC(C(=O)O)C3)cc2)[se]1` [Compound 24, 1-(4-(2-(2-isopropoxyphenyl)-1,3-selenazole-5-yl)benzyl)azetidine-3-carboxylic acid], the half-maximal effective concentration (EC50) on S1P1 receptor [1] (setting [3]) and on S1P1 receptor [2] (setting [4]) was more than 1000 nM each time.

As to `CCOC(=O)C1CN(Cc2ccc(-c3cnc(-c4ccccc4OC(C)C)[se]3)cc2)C1` [Compound 25, Ethyl 1-(4-(2-(2-isopropoxyphenyl)-1,3-selenazole-5-yl)benzyl)azetidine-3-carboxylate], the figures for the concentration giving a half-maximal response (EC50) at S1P1 receptor [1] (setting [3]) and at S1P1 receptor [2] (setting [4]) were 252 nM and 347 nM, respectively.

For the compound `COC(=O)C1CN(Cc2ccc(-c3cnc(-c4ccccn4)[se]3)cc2)C1` [Compound 26, Methyl 1-(4-(2-(pyridine-2-yl)-1,3-selenazole-5-yl)benzyl)azetidine-3-carboxylate], the concentration for a half-maximal effect (EC50) at S1P1 receptor [1] (setting [3]) and on S1P1 receptor [2] (setting [4]) was more than 1000 nM throughout.

As for `O=C(O)C1CN(Cc2ccc(-c3cnc(-c4ccccn4)[se]3)cc2)C1` [Compound 27, Sodium 1-(4-(2-(pyridine-2-yl)-1,3-selenazole-5-yl)benzyl)azetidine-3-carboxylate], the EC50 at S1P1 receptor [1] (setting [3]) and at S1P1 receptor [2] (setting [4]) was more than 1000 nM in each case.

`COC(=O)C1CN(Cc2ccc(-c3cnc(-c4cccnc4)[se]3)cc2)C1` [Compound 28, Methyl 1-(4-(2-(pyridine-3-yl)-1,3-selenazole-5-yl)benzyl)azetidine-3-carboxylate]: the concentration giving a half-maximal response (EC50) on S1P1 receptor [1] (setting [3]) and on S1P1 receptor [2] (setting [4]) was more than 1000 nM in each case.

In the case of `O=C(O)C1CN(Cc2ccc(-c3cnc(-c4cccnc4)[se]3)cc2)C1` [Compound 29, Sodium 1-(4-(2-(pyridine-3-yl)-1,3-selenazole-5-yl)benzyl)azetidine-3-carboxylate], the 50% effective concentration (EC50) at S1P1 receptor [1] (setting [3]) amounted to 635 nM; on S1P1 receptor [2] (setting [4]), 379 nM.

Consider `COC(=O)C1CCN(Cc2ccc(-c3cnc(-c4ccc(C(C)(C)C)cc4)[se]3)cc2)C1` (stereo not shown) [Compound 30, Methyl 1-(4-(2-(4-tert-butylphenyl)-1,3-selenazole-5-yl)benzyl)pyrrolidine-3-carboxylate], for which the results for the concentration giving a half-maximal response (EC50) at S1P1 receptor [1] and on S1P1 receptor [2] were 8.5 nM and 205 nM, respectively.

For `COC(=O)C1CCN(Cc2ccc(-c3cnc(-c4ccc(C(C)(C)C)cc4)[se]3)cc2)CC1` [Compound 32, Methyl 1-(4-(2-(4-tert-butylphenyl)-1,3-selenazole-5-yl)benzyl)piperidine-4-carboxylate], the results for the EC50 at S1P1 receptor [1] (setting [3]) and on S1P1 receptor [2] (setting [4]) were 580 nM and 519 nM, respectively.

For the compound `COC(=O)C1CCN(Cc2ccc(-c3cnc(-c4ccc(OC(C)C)c(Cl)c4)[se]3)cc2)C1` (stereo not shown) [Compound 33, Methyl 1-(4-(2-(3-chloro-4-isopropoxyphenyl)-1,3-selenazole-5-yl)benzyl)pyrrolidine-3-carboxylate], the results for the concentration for a half-maximal effect (EC50) on S1P1 receptor [1] and at S1P1 receptor [2] were 1.79 nM and 11.9 nM, respectively.

In the case of `CCOC(=O)CNCc1ccc(-c2cnc(-c3ccc(OC(C)C)c(Cl)c3)[se]2)cc1` [Compound 35, Ethyl 2-(4-(2-(3-chloro-4-isopropoxyphenyl)-1,3-selenazole-5-yl)benzylamino)acetate], the half-maximal effective concentration (EC50) at S1P1 receptor [1] was found to be 21 nM; on S1P1 receptor [2], 11.5 nM.

Take `COC(=O)CCNCc1ccc(-c2cnc(-c3ccc(OC(C)C)c(Cl)c3)[se]2)cc1` [Compound 37, Methyl 3-(4-(2-(3-chloro-4-isopropoxyphenyl)-1,3-selenazole-5-yl)benzylamino)propanoate]: the EC50 at S1P1 receptor [1] was determined as 7.88 nM; on S1P1 receptor [2], 13.5 nM.

`COC(=O)C1CN(Cc2ccc(-c3ncc(-c4ccc(C(C)(C)C)cc4)[se]3)cc2)C1` [Compound 39, Methyl 1-(4-(5-(4-tert-butylphenyl)-1,3-selenazole-2-yl)benzyl)azetidine-3-carboxylate]: the EC50 on S1P1 receptor [1] turned out to be 39.2 nM; at S1P1 receptor [2], 160 nM.
